Experimental data: ChEMBL document CHEMBL1146791, “Synthesis of nitrated indenoisoquinolines as topoisomerase I inhibitors” (2004)

Experiments:
[1] = test system: DU-145; assay: Cytotoxicity against DU-145 human prostate cancer cell line was determined; format: functional
[2] = test system: HCT-116; assay: Cytotoxicity against HCT116 human colon cancer cell line was determined; format: functional
[3] = test system: HOP-62; assay: Cytotoxicity against HOP-62 human lung cancer cell line was determined; format: functional
[4] = test system: MDA-MB-435; assay: Cytotoxicity against MDA-MB-435 human breast cancer cell line was determined; format: functional
[5] = test system: SN12C; assay: Cytotoxicity against SN12C human renal cancer cell line was determined; format: functional
[6] = test system: UACC-62; assay: Cytotoxicity against UACC-62 human melanoma cancer cell line was determined; format: functional
[7] = biological target: T1, DNA topoisomerase 1 (Homo sapiens) (UniProt P11387); assay: Inhibitory activity against DNA topoisomerase I cleavage was determined at a concentration ranging up to 10 uM
T1 sequence (whole entry): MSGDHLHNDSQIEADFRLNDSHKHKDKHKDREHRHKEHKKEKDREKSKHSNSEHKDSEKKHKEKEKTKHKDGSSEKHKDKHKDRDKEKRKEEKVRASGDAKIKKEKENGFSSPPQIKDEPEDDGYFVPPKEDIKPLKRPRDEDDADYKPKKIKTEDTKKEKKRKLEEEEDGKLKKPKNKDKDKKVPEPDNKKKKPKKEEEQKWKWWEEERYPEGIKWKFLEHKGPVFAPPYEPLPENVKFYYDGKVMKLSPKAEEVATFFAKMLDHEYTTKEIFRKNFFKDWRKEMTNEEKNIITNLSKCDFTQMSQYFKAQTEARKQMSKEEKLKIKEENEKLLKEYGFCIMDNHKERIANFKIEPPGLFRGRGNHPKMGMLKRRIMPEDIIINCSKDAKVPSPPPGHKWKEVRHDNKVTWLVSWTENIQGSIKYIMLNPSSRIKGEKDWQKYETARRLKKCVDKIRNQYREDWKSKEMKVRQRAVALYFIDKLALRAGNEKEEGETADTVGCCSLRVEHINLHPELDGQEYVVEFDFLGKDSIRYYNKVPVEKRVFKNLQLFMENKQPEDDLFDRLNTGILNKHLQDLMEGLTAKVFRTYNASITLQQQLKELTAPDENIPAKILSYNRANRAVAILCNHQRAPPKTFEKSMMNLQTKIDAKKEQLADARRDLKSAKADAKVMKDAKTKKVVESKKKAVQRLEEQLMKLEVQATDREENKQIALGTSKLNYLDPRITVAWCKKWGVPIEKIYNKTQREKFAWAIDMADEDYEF

[8] = test system: OVCAR-3; assay: Cytotoxicity against OVCAR-3 human ovarian cancer cell line was determined; format: functional
[9] = test system: SF-268; assay: Cytotoxicity against SF-268 human CNS cancer cell line was determined; format: functional
[10] = biological target: T1, DNA topoisomerase 1 (Homo sapiens); assay: Inhibitory activity against DNA topoisomerase I cleavage was determined at a concentration ranging up to 10 uM; ''+/-'' No description in the article
[11] = biological target: T1, DNA topoisomerase 1 (Homo sapiens); assay: Inhibitory activity against DNA topoisomerase I cleavage was determined at a concentration ranging up to 10 uM; ''+++'' indicates greater activity than the parent compound 25; parameters: scale not given here
[12] = biological target: T1, DNA topoisomerase 1 (Homo sapiens); assay: Inhibitory activity against DNA topoisomerase I cleavage was determined at a concentration ranging uM camptothecin
[13] = biological target: T1, DNA topoisomerase 1 (Homo sapiens); assay: Inhibitory activity against DNA topoisomerase I cleavage was determined at a concentration ranging up to 10uM; '+' indicates weak activity
[14] = biological target: T1, DNA topoisomerase 1 (Homo sapiens); assay: Inhibitory activity against DNA topoisomerase I cleavage was determined at a concentration ranging up to 10 uM; NT- Not tested

Activity [7] | Activity [10] | Activity [11] | Activity [12] | Activity [13] | Activity [14] | SMILES | GI50 [1] [nM] | GI50 [2] [nM] | GI50 [3] [nM] | GI50 [4] [nM] | GI50 [5] [nM] | GI50 [6] [nM] | GI50 [8] [nM] | GI50 [9] [nM]
0 | – | – | – | – | – | Nc1ccc2c3c(n(CCCCl)c(=O)c2c1)-c1cc2c(cc1C3=O)OCO2 | – | – | – | > 100000 | > 100000 | > 100000 | > 100000 | > 100000
– | – | ++ | – | – | – | CN1C(=O)c2cc([N+](=O)[O-])ccc2[C@H]2C(=O)c3cc4c(cc3[C@H]21)OCO4 | 50 | 14 | 158 | 107 | 33 | 26 | 30 | 24
– | – | – | +++ | – | – | NCCCn1c2c(c3ccc([N+](=O)[O-])cc3c1=O)C(=O)c1cc3c(cc1-2)OCO3 | < 10 | < 10 | < 10 | 25 | < 10 | 17 | 302 | < 10
– | – | – | +++ | – | – | [N-]=[N+]=NCCCn1c2c(c3ccc([N+](=O)[O-])cc3c1=O)C(=O)c1cc3c(cc1-2)OCO3 | < 10 | < 10 | < 10 | < 10 | < 10 | < 10 | < 10 | < 10
– | – | – | – | weak activity | – | COc1cc2c(cc1OC)[C@H]1C(=O)c3cc4c(cc3[C@H]1N(CCCBr)C2=O)OCO4 | 30 | 70 | 120 | 150 | 30 | 50 | 400 | –
– | – | – | – | weak activity | – | O=C1c2cc3c(cc2[C@@H]2[C@H]1c1ccc([N+](=O)[O-])cc1C(=O)N2CCCCl)OCO3 | < 10 | < 10 | < 10 | < 10 | < 10 | < 10 | < 10 | < 10
– | – | – | – | weak activity | – | NCCCn1c2c(c3ccccc3c1=O)C(=O)c1cc3c(cc1-2)OCO3 | – | – | – | – | – | – | – | –
– | – | – | – | weak activity | – | O=C1c2cc3c(cc2[C@@H]2[C@H]1c1ccc([N+](=O)[O-])cc1C(=O)N2CCCBr)OCO3 | < 10 | < 10 | < 10 | < 10 | < 10 | < 10 | < 10 | < 10
– | – | ++ | – | – | – | O=C1c2cc3c(cc2-c2c1c1ccc([N+](=O)[O-])cc1c(=O)n2CCCCl)OCO3 | 98 | 2400 | 410 | 1820 | 132 | 229 | 9120 | 148

More lines, now with the values behind:

SMILES | Activity [7] | Activity [10] | Activity [11] | Activity [12] | Activity [13] | Activity [14] | GI50 [1] [nM] | GI50 [2] [nM] | GI50 [3] [nM] | GI50 [4] [nM] | GI50 [5] [nM] | GI50 [6] [nM] | GI50 [8] [nM] | GI50 [9] [nM]
COc1cc2c3c(n(C)c(=O)c2cc1OC)-c1cc2c(cc1C3=O)OCO2 | – | – | – | – | – | – | 37000 | 35000 | 1300 | 96000 | 68000 | 4200 | – | –
O=C1c2ccccc2-c2c1c1ccccc1c(=O)n2CCCBr | – | +/- | – | – | – | – | – | – | – | – | – | – | – | 4610
[N-]=[N+]=NCCCn1c2c(c3ccccc3c1=O)C(=O)c1ccccc1-2 | – | – | – | – | – | – | 44700 | 4900 | 7590 | 7760 | 25100 | 19500 | 7940 | –
[N-]=[N+]=NCCCn1c2c(c3ccc([N+](=O)[O-])cc3c1=O)C(=O)c1ccccc1-2 | – | – | – | – | – | – | > 100000 | 8130 | > 100000 | > 100000 | 72400 | 44700 | – | 79400
O=C1c2ccccc2-c2c1c1ccc([N+](=O)[O-])cc1c(=O)n2CCCCl | – | – | – | – | – | – | 40700 | 3630 | 43700 | 31600 | 26900 | 20400 | 4900 | 23400
COc1cc2c3c(n(CCCN)c(=O)c2cc1OC)-c1cc2c(cc1C3=O)OCO2 | – | – | ++ | – | – | – | – | – | – | – | – | – | – | –
NCCCn1c2c(c3ccc([N+](=O)[O-])cc3c1=O)C(=O)c1ccccc1-2 | – | – | – | – | – | – | 148 | 85 | 275 | – | 102 | 372 | – | 302
O=C1c2ccccc2-c2c1c1ccc([N+](=O)[O-])cc1c(=O)n2CCCBr | – | – | – | – | – | 0 | > 100000 | 3450 | – | > 100000 | > 100000 | > 100000 | > 100000 | > 100000
NCCCn1c2c(c3ccccc3c1=O)C(=O)c1ccccc1-2 | – | – | ++ | – | – | – | 220 | 180 | – | 780 | 160 | 260 | 1380 | –
